# Reference: US12274683B2 (Bayer HealthCare LLC, priority 2019, dated 2025)
# Tested on: inflammation/edema induced by carrageenan-injection into the footpads of Sprague Dawley (SD) rats
# Test: Carrageenan-induced inflammation rat paw test (Example 3)
# Settings: at necropsy about 24 h post-carrageenan, N=10, SE in line below
# Protocol: Efficacy evaluation was based on gait analysis, von Frey absolute thresholds and ankle caliper differentials recorded over 24 h after initial carrageenan injection, and paw differential weights following euthanasia of the test subjects.
# Experimental Design. Male Sprague Dawley (Envigo RMS, Inc., Indianapolis) were weighed on Day 1 (mean 285 g) and randomized by body weight into treatment groups. On Day 0-1, animals in Groups 3-11 were dosed with topical compounds on 2-minute intervals according to the dose schedules in Table 10. […] Gait and von Frey analyses were conducted at time points of 2 h, 4 h, 6 h, 8 h, and 24 h post-carrageenan injection; ankle caliper measurements were taken immediately following gait assessment. […]
# Gait Analysis. […] Gait was scored visually as follows (descriptions refer to diseased leg): • 0=Normal, approximately equal ink staining to normal paw. • 1=Slight limp/pain. […]
# Testing began with three applications of the 4.31 hair. […] Responses were recorded as either a 0 (no response) or a 1 (response). […]
# Testing was done on hind (heel) portions of the hind paw. Testers monitored the animals for hyper-responding or freezing, in which case animals were left alone until calm.
smiles,measurement,setting,value
"COc1ccc2cc([C@H](C)C(=O)O)ccc2c1 [Naproxen (oral), Naproxen]",Paw Weight Difference (R − L),,‡0.410 g
same,Paw Weight Difference (R − L),listed as oral Naproxen,significantly reduced
